Data reported in patent US8604053B2, “TRPV1 antagonists” (AbbVie Inc., priority 2008, dated 2013).

Legend:
CYP2C9 = target: T1, CYP2C9 (Homo sapiens, UniProt P11712); test: CYP2C9 inhibition assay; type: in vitro ADME; conditions: human liver microsomes, substrate Luciferin-H; for inhibition at 25 min, 2.2 µM: pH 7.4, probe Luciferin-H (100 μM final), read-out: CYP2C9 % inh @ 2.2 μM
T1 construct: human liver microsomes (BD Gentest); tissue BD Gentest; host or cells: human liver microsomes
Method in brief: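 Human liver microsomes (0.4 mg/mL) with NADPH-regenerating system in pH 7.4 phosphate, preincubated with compound 10 min at 37 °C. Luciferin-H (100 μM final) then added for 25 min at 37 °C, 1% DMSO. Luminescence read after Luciferin-H detection reagent; run in duplicate.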

CYP3A4 = target: T2, CYP3A4 (Homo sapiens, UniProt P08684); test: CYP3A4 inhibition assay; type: in vitro ADME; conditions: human liver microsomes, substrate BZQ; for inhibition at 25 min, 2.2 µM: pH 7.4, probe 7-benzyloxyquiniline (BZQ), 50 μM final, read-out: CYP3A4 % inh @ 2.2 μM
T2 construct: human liver microsomes (BD Gentest, 450 μL; final concentration: 0.4 mg/mL); tissue BD Gentest; host or cells: human liver microsomes
T2 sequence (P08684 whole entry): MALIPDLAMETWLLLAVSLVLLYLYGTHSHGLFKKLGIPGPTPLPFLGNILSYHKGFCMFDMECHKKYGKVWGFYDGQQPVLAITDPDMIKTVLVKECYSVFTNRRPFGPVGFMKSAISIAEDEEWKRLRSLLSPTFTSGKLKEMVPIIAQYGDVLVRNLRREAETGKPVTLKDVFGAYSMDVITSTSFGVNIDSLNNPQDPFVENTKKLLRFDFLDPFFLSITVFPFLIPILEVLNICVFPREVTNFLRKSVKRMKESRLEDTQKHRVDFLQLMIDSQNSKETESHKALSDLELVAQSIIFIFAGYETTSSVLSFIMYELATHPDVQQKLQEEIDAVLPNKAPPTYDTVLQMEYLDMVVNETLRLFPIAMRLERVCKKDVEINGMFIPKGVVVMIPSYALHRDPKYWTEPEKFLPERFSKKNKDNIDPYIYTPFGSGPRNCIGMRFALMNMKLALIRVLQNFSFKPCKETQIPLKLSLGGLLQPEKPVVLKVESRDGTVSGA
Method: Luciferin-H was used as the substrate for CYP2C9; 3-[2-(N,N-diethyl-N-methylammonium)ethyl]-7-methoxy-4-methylcoumarin (AMMC) was used as the substrate for CYP2D6; 7-benzyloxyquiniline (BZQ) was used as the substrate for CYP3A4.
Pre-Incubation Mixture Preparation for CYP3A4: A pre-incubation mixture was prepared by combining 100 mM phosphate buffer (19.35 mL; pH 7.4), human liver microsomes (BD Gentest, 450 μL; final concentration: 0.4 mg/mL), and 10 mM nicotinamide adenine dinucleotide phosphate in 65.4 mM MgCl2 hexahydrate (225 μL; final concentration: 100 μM and 654 μM, respectively). To this was mixture was added a ‘regeneration’ mixture (225 μL) of 333 mM glucose-6-phosphate and 40 U/mL glucose-6-phosphate dehydrogenase in 5 mM sodium citrate (final concentration: 3.3 mM, 0.4 U/mL, and 0.05 mM, respectively).
Substrate Mixture Preparation for CYP3A4: To a solution of 100 mM phosphate buffer, (2.36 mL, pH 7.4) was added 30 mM BZQ in acetonitrile (40 μL; final solution concentration 0.5 mM, final assay concentration 50 μM).
CYP3A4 Inhibiton Assay: To each well in the assay plate containing varying concentrations of test compound or control compound in DMSO (10 μL), CYP3A4 Pre-Incubation Mixture (90 μL) was added to the wells and the assay plate was pre-incubated for 10 minutes at 37° C., with shaking or rocking. A pre-read of each well was performed at 405 nm and 535 nm extinction/emission. CYP3A4 Substrate Mixture (10 μL) was added to all wells and the assay plate was incubated for an additional […] at 37° C., with shaking or rocking. Final DMSO concentration was 1%. A post-read of each well was then performed at 405 nm and 535 nm extinction/emission.

[1] = Rat telemetry protocol, core body temperature; type: in vivo; conditions: core body temperature of rats one hour post dosing, 100 μmol/kg p.o., relative to vehicle
Method in brief: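 Male Sprague Dawley rats (225–250 g) with intraperitoneal telemetry transmitters, 2-week recovery. Single oral 100 μmol/kg dose in 10% EtOH/20% Tween-80/70% PEG-400; core body temperature recorded every 15 min over 24 h.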

T1 sequence (P11712 whole entry): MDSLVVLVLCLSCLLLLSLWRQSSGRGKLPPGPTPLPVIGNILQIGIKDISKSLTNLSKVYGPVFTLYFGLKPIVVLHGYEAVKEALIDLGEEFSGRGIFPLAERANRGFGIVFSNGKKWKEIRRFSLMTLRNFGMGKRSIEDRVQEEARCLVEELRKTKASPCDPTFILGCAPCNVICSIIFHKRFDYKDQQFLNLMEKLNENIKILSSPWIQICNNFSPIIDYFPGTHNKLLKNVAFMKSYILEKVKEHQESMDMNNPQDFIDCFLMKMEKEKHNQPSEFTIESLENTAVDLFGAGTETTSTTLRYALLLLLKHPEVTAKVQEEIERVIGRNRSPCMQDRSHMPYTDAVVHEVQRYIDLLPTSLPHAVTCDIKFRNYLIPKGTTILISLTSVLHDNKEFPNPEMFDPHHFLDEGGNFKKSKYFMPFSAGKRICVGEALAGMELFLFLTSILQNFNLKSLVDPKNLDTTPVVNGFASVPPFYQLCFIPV

Row | Compound | inhibition at 25 min, 2.2 µM (CYP2C9) [%] | inhibition at 25 min, 2.2 µM (CYP3A4) [%] | Δ Temp (° C.) [1] [°C] | CYP2C9 % inh @ 2.2 μM (CYP2C9) [%] | CYP3A4 % inh @ 2.2 μM (CYP3A4) [%]
1 | Cc1cc2c(NC(=O)N[C@@H]3CC(C)(C)Oc4cc(F)ccc43)c(F)ccc2cn1 [Example 123, N-[(4R)-7-fluoro-2,2-dimethyl-3,4-dihydro-2H-chromen-4-yl]-N′-(6-fluoro-3-methylisoquinolin-5-yl)urea] | 19 | 49 | 0.0 |  | 
2 | Cc1cc2c(NC(=O)N[C@@H]3C[C@](C)(CF)Oc4c(F)cccc43)cccc2cn1 [Example 126, N-[(2R,4R)-8-fluoro-2-(fluoromethyl)-2-methyl-3,4-dihydro-2H-chromen-4-yl]-N′-(3-methylisoquinolin-5-yl)urea] | 0 | 11 | 0.0 |  | 
3 | Cc1cc2c(NC(=O)N[C@@H]3C[C@@](C)(CF)Oc4c(F)cccc43)cccc2cn1 [Example 128, N-[(2S,4R)-8-fluoro-2-(fluoromethyl)-2-methyl-3,4-dihydro-2H-chromen-4-yl]-N′-(3-methylisoquinolin-5-yl)urea] | 9 | 0 | −0.1 |  | 
4 | N-[(4R)-2,2-diethyl-6-fluoro-3,4-dihydro-2H-chromen-4-yl]-N-(3-methylisoquinolin-5-yl)urea [Example 56] |  |  | 0.2 | 20 | 17
5 | N-[(4R)-2,2-diethyl-8-fluoro-3,4-dihydro-2H-chromen-4-yl]-N-(3-methylisoquinolin-5-yl)urea [Example 62] |  |  | −0.5 | 22 | 0
6 | N-[(4R)-6,8-difluoro-2,2-dimethyl-3,4-dihydro-2H-chromen-4-yl]-N-(3-methylisoquinolin-5-yl)urea [Example 98] |  |  | 0.0 | 8.4 | 0
7 | N-[(4R)-6,8-difluoro-2,2-dimethyl-3,4-dihydro-2H-chromen-4-yl]-N′-isoquinolin-5-ylurea [Example 17] |  |  | −1.5 | 50 | 63
8 | N-[(4R)-7-fluoro-2,2,8-trimethyl-3,4-dihydro-2H-chromen-4-yl]-N-(3-methylisoquinolin-5-yl)urea [Example 111] |  |  | −1.3 | 0.36 | 0
